What was measured:
TGF-β1 = assay: HHSC fibrosis marker gene expression, RT-PCR, TGF-β1; assay type: cell-based, human; details: AT-II 10^-6M + LPS 10^-5M; ARB 10^-6M, obeticholic acid 5×10^-6M; 24 hours; monotherapy vs G2AL, combination vs monotherapy groups
Procedure: The various combined effects of obeticholic acid and three types of ARBs (losartan, valsartan, and candesartan) were confirmed in an in vitro cell system experiment. Specifically, using human hepatic stellate cells (HHSC), which are implicated in the main mechanism of progression of hepatic fibrosis in NASH, the effects of administration of obeticholic acid in combination with the three ARBs of inhibiting HHSC proliferation capacity and the expression of fibrosis markers were evaluated according to the following method. Human hepatic stellate cells (HHSC) (also referred to as human hepatic star cells) Obeticholic acid (obtained from Intercept Pharmaceuticals, Inc. via Sumitomo Dainippon Pharma Co., Ltd.) was used as an FXR agonist, and commercial losartan (potassium salt of losartan; referred to in this working example simply as “losartan”) and valsartan and candesartan ([…] of candesartan; referred to in this working example simply as “candesartan”) were used as ARBs. Angiotensin II (AT-II) and/or lipopolysaccharide (LPS) were used (both AT1-mediated AT-II signalling and TLR4-mediated LPS signaling are known to play major roles in HSC activation and the progression of hepatic fibrosis). With respect to the effect of inhibiting fibrosis marker gene expression, collagen production capacity and TGF-β production capacity were evaluated by the RT-PCR method. 1) HHSCs were inoculated onto a 6-well plate in the amount of 300,000 cells/2 ml and allowed to proliferate in 1% FBS DMEM medium for 24 hours. 2) After 24 hours, the cells were divided into the following 7 groups and transferred to culture medium after adding the following drugs and/or reagents. Losartan was used as an ARB. Negative control group (G1): No drugs added (control) […] AT-II (10^-6M) Positive control group L […]): LPS (10^-5M) Positive control group AL ([…]): (10^-6M)+LPS (10^-5M) Obeticholic acid administration (G3): AT-II (10^-6M)+LPS (10^-5M)+obeticholic acid (5×10^-6M) ARB administration (G4): AT-II (10^-6M)+LPS (10^-5M)+ARB (10^-6M) Obeticholic acid+ARB combined administration (G5): AT-II (10^-6M)+LPS (10^-5M)+obeticholic acid (5×10^-6M)+ARB (10^-6M) […] Evaluations were conducted in the five groups G1, G2AL, G3, G4, and G5.

[1] = system: Otsuka Long-Evans Tokushima Fatty (OLETF) rats administered porcine serum (PS); assay: Rat NASH model (OLETF rats given porcine serum), Sirius Red histology of hepatic fibrosis; assay type: in vivo; details: obeticholic acid 30 mg/kg/day and/or losartan 30 mg/kg/day oral; for fibrosis index (FI) as fraction of the level in the positive control group: PS 8 weeks, p<0.01; for progression of hepatic fibrosis (micrographs of Sirius Red-stained liver sections): PS i.p. twice weekly 8 weeks
Procedure: As a rat NASH model, Otsuka Long-Evans Tokushima. Fatty (OLETF) rats, which are known as a model for naturally-occurring type II diabetes with obesity, were administered porcine serum (PS) in order to experimentally induce liver fibrosis, and the therapeutic effects of distilled water (vehicle administration group), obeticholic acid (an FXR agonist) and losartan (an ARB) (administration groups, combined administration group) were investigated according to the following method.
Male OLETF rats (n=40) and Long-Evans Tokushima Otsuka (LETO) rats=10; non-diabetic negative control group)
Obeticholic acid (obtained from Intercept Pharmaceuticals, Inc. via Sumitomo Dainippon Pharma Co., Ltd.) was used as an FXR agonist, and commercial losartan (potassium salt of losartan; referred to in this working example simply as “losartan”) was used as an ARB.
Obeticholic acid (30 mg/kg/day) and/or losartan (30 mg/kg/day) was/were given by forced oral administration; the administration period was 8 weeks in all cases.
12-week-old OLETF rats were randomly divided into 4 groups (G2, G3, G4, G5) (n=10 for each group) and given intraperitoneal administrations of 1.0 ml/kg of porcine serum (PS) twice weekly for 8 weeks. 12-week-old LETO rats (n=10) were taken as group G1 and administered PS in the same manner. On the same day on which PS administration was begun, the group G3 and G4 rats were respectively administered obeticholic acid (30 mg/kg/day) and losartan (30 mg/kg/day) daily for 8 weeks by forced continuous oral administration. The group G5 rats were given daily combined administration of obeticholic acid (30 mg/kg/day) and losartan (30 mg/kg/day) for 8 weeks in the same manner. The rats in the G1 group (LETO) and G2 group (OLETF) were administered distilled water as a vehicle instead of the drugs and taken as the negative and positive control group respectively (with the same administration method as in the drug groups).
In order to evaluate the progression of hepatic fibrosis, formalin-fixed paraffin-embedded liver sections (5 μm in width) were taken from rats that had completed the above testing and stained with Sirius Red. Micrographs of the stained sections were taken and collected (in all of the rats, microscopic images were collected with a total of 10 fields per sample), and the micrographs of the various groups were compared. In order to quantitate the progression of fibrosis in the various groups, a semiquantitative analysis of the histological characteristics of the images of the stained specimens collected was conducted using ImageJ software from the NIH (National Institutes of Health).

α1(I) procollagen = assay: Rat NASH model, RT-PCR of hepatic α1(I) procollagen mRNA expression; assay type: in vivo; details: OLETF rats, PS 8 weeks, obeticholic acid 30 mg/kg/day and/or losartan 30 mg/kg/day oral
Procedure: Using the liver sections from the rats in the various groups obtained in working example 1, an immunohistochemical study by immunohistological staining with α-smooth muscle actin (α-SMA) antibody and a quantitative analysis of transforming growth factor-β1 TGF-β1) and collagen (α1(I) procollagen) mRNA expression were conducted. α-SMA is known to be an indicator (marker) of activation of hepatic stellate cells (HSCs) (also known as hepatic star cells). Moreover, activation of hepatic stellate cells (HSC), overproduction of TGF-β1 (a fibrosis-promoting cytokine) accompanying said activation, and overproduction of extracellular matrix components such as collagen are thought to play a central role in the mechanism of progressive hepatic fibrosis in NASH. For this reason, mRNA expression of TGF-β1 and collagen (α1(I) procollagen) can be a fibrosis indicator (marker).
A comparative study was conducted by analyzing TGF-β1 and collagen (α1(I) procollagen) mRNA expression in the livers of the rates of the various groups of working example 1 by means of the quantitative real-time polymerase chain reaction (RT-PCR). Quantitation of the mRNA expression levels by RT-PCR was conducted on a StepOne Plus™ system (manufactured by Applied Biosystems®) using the fluorescent dye SYBR® Green

Compound: CCCCc1nc(Cl)c(CO)n1Cc1ccc(-c2ccccc2-c2nn[nH]n2)cc1 [losartan]
- TGF-β1 mRNA expression induced by AT-II and LPS in HHSC (TGF-β1): statistically significant inhibition
- fibrosis index (FI) as fraction of the level in the positive control group [1]: 7/10
- progression of hepatic fibrosis (micrographs of Sirius Red-stained liver sections) [1]: moderately inhibited
- α1(I) procollagen mRNA expression in liver compared to the positive control group (α1(I) procollagen): moderate decreasing tendency

Compound: CC[C@H]1[C@@H](O)[C@@H]2[C@H](CC[C@]3(C)[C@@H]([C@H](C)CCC(=O)O)CC[C@@H]23)[C@@]2(C)CC[C@@H](O)C[C@@H]12 [obeticholic acid, 3α,7α-dihydroxy-6α-ethyl-5β-cholan-24-oic acid]
- TGF-β1 mRNA expression induced by AT-II and LPS in HHSC (TGF-β1): statistically significant inhibition
- fibrosis index (FI) as fraction of the level in the positive control group [1]: approximately 6/10
- progression of hepatic fibrosis (micrographs of Sirius Red-stained liver sections) [1]: moderately inhibited
- α1(I) procollagen mRNA expression in liver compared to the positive control group (α1(I) procollagen): moderate decreasing tendency

Source: patent publication US11419878B2, “Medicine obtained by combining FXR agonist and ARB” (Intercept Pharmaceuticals, Inc., priority 2016, dated 2022)
